{"source": "patent EP0666847B1", "about": "(priority 1993, dated 1995)", "key": {"5-HT1Dβ receptor [1]": {"biological_target": "T1, 5-HT1Dβ receptor (Homo sapiens, UniProt P28222)", "T1 construct": "expressed in transfected cells", "T1 sequence (P28222 whole entry)": "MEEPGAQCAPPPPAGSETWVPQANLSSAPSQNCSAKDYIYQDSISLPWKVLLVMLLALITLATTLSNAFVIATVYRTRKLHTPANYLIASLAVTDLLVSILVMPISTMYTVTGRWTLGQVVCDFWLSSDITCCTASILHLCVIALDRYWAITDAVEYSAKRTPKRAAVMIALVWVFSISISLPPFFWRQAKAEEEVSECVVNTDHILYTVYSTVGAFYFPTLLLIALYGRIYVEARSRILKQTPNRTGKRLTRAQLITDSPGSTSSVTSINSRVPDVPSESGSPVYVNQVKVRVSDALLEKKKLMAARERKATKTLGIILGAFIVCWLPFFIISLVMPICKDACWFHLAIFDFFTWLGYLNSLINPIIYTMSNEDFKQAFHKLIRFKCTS", "assay": "biochemical", "assay_type": "binding", "details": "for 5-HT1Dβ/5HT1A: selectivity ratio, 5-HT1A binding with 3H-8-OH-DPAT, 5-HT1Dβ with 3H-5HT; for Ki: 3H-5HT, membranes of recombinant cells, 15 minute incubation at 37°C", "protocol": "Increasing levels of the test compound were incubated with the radioligand and the membrane homogenates prepared from the recombinant cells. After a 15 minute incubation at 37°C, the incubation was terminated by vacuum filtration. The filters were washed with buffer and the filters were counted for radioactivity using liquid scintillation spectrometry."}, "5-HT1Dβ receptor [2]": {"biological_target": "T1, 5-HT1Dβ receptor", "assay": "Inhibition of forskolin-stimulated adenylate cyclase (cAMP radioimmunoassay) in 5-HT1Dβ-presenting CHO cells", "assay_type": "cell-based", "protocol": "CAMP levels were determined using a radioimmunoassay kit containing antibody specific for cAMP and radioiodinated cAMP. The amount of the compound that inhibited 50% of the forskolin-stimulated adenylate cyclase activity was determined from the inhibition curve data subjected to computer assisted analysis (Figure 1)."}}, "note": "Counter-ions that a name gives are not always drawn."}
{"compound": "CCCCCCCCCOc1ccc2[nH]cc(CCN)c2c1", "note": "[Example 4, 3-(2-aminoethyl)-5-nonyloxyindole oxalate]", "values": [{"measurement": "5-HT1Dβ/5HT1A", "setting": "5-HT1Dβ receptor [1]", "result": 260}]}
{"compound": "Cl.NCCc1c[nH]c2ccc(OCCCCCCCCO)cc12", "note": "[Example 5, 3-(2-aminoethyl)-5-(8-hydroxyoctyloxy)-indole hydrochloride]", "values": [{"measurement": "Ki", "setting": "5-HT1Dβ receptor [1]", "result": 0.3, "unit": "nM"}, {"measurement": "5-HT1Dβ/5HT1A", "setting": "5-HT1Dβ receptor [1]", "result": 119}, {"measurement": "EC50", "setting": "5-HT1Dβ receptor [2]", "result": 200, "unit": "nM"}, {"measurement": "inhibition at 0.001 µM", "setting": "5-HT1Dβ receptor [2]; CHO, read-out: % Inhib. cAMP", "result": 0, "unit": "%"}, {"measurement": "inhibition at 0.01 µM", "setting": "5-HT1Dβ receptor [2]; CHO, read-out: % Inhib. cAMP", "result": 11, "unit": "%"}, {"measurement": "inhibition at 0.1 µM", "setting": "5-HT1Dβ receptor [2]; CHO, read-out: % Inhib. cAMP", "result": 33, "unit": "%"}, {"measurement": "inhibition at 1 µM", "setting": "5-HT1Dβ receptor [2]; CHO, read-out: % Inhib. cAMP", "result": 92, "unit": "%"}]}
{"compound": "CCOCCCCCCOc1ccc2[nH]cc(CCN)c2c1", "note": "[Example 8, 3-(2-aminoethyl)-5-(6-ethyloxyhexyloxy)-indole hydrochloride]", "values": [{"measurement": "Ki", "setting": "5-HT1Dβ receptor [1]", "result": 0.4, "unit": "nM"}, {"measurement": "5-HT1Dβ/5HT1A", "setting": "5-HT1Dβ receptor [1]", "result": 180}]}
{"compound": "CCCCOCCCCOc1ccc2[nH]cc(CCN)c2c1", "note": "[Example 9, 3-(2-aminoethyl)-5-(4-butyloxybutyloxy)-indole hydrochoride]", "values": [{"measurement": "Ki", "setting": "5-HT1Dβ receptor [1]", "result": 2.5, "unit": "nM"}, {"measurement": "5-HT1Dβ/5HT1A", "setting": "5-HT1Dβ receptor [1]", "result": 30}]}
